“Also recorded” adds a separate entry of the source.
How the values were obtained:
in vivo = details: mouse, po
Experimental: (§1) The search of an acute toxicity has been carried out on lots of mice (Rockland strain) weighing from […]. The mice received orally increasing dosis of tetrahydroalstonine suspended in an aqueous solvent.
(§2) The animals are kept under survey for 7 days and the deaths are recorded. The average lethal dosis has been graphically calculated according to the method of Wilcoxon and Litchfield. A lot of mice received only the solvent as controls.

mice (Rockland strain) = assay: Acute toxicity, oral; details: mouse, in vivo
Experimental: as §1, §2

[1] = tested on: Hexobarbital-induced sleeping time; assay: Hexobarbital-induced sleeping time; format: in vivo; details: rodents, high dosages
[2] = tested on: recovery of learned memories; assay: Recovery of learned memories after electroshock (aquatic maze crossing); format: in vivo, rat
Source text: Effects of tetrahydroalstonine on the recovery of learned memories on rats.
Tetrahydroalstonine has been tested on lots of rats in order to determine how fast it allows the recovery of learned memories after supramaximal electroshock in comparision with Vincamine and Papaverine. These last compounds are known to be active on the circulation namely as vasodilating agents.
In this test, as described by C. Giurgea (J. Pharmacol. (Paris) 3 17 (1972)), the rats are submitted to a submaximal electroshock which causes a spatio-temporal desorientation. This syndrom is evidenced by the difficulties the tested animals encountered for crossing over a maze filled with cold water without any error, after they have been submitted to the electroshock. The rats have been previously trained to swimm through this maze and the training has been renewed four times for 2 days.
The electric shock was delivered by means of a Neurovar apparatus (ALVAR Electronics) the third day. 20 Minutes after the electro shock, each lot of rats is tested and the time for crossing over the maze is determined. Immediately after, the rats received the compound to be tested by intra oesophageal tubing. Each lot is then experienced four times, 1, 2, 3, and 4 hours after the electroshock.
The score of performances of each individual is recorded and every error during the crossing over noticed.
The compounds to be tested (papaverine, vincamine and tetrahydroalstonine) are given to the animals, suspended in an aqueous solution of carboxymethylcellulose and sorbitan monooleate.
Papaverine and vincamine were administered at dosis ranging from 1 to 20 mg/kg. Tetrahydroalstonine was administered at a dosis of 0.6 mg/kg, 6 mg/kg and 60 mg/kg.
A lot of rats received only the aqueous solvent under the same volume (0.5 ml/100 g animal) as controls.
Therein are reported for each lot of rats the number of errors and the average time for crossing over the maze during the 5 tests performed after the animals have been subjected to the electroshock.
The treatment has been given 20 mn after the electroshock, immediately
after the first crossing over

central nervous system = assay: Effects on the central nervous system; format: in vivo
[3] = 0,6 mg/kg P.O., 20 minutes after electroshock (before treatment)
[4] = 6 mg/kg P.O., 20 minutes after electroshock (before treatment)
[5] = 60 mg/kg P.O., 20 minutes after electroshock (before treatment)

## COC(=O)C1=CO[C@@H](C)[C@@H]2CN3CCc4c([nH]c5ccccc45)[C@@H]3C[C@H]12 [Tetrahydroalstonine]
In vivo
  LD50 at 168 h: > 3000 mg/kg
Mice (Rockland strain)
  toxicity: practically devoid of toxic effect
[1]
  Hexobarbital-induced sleeping time: increased
[2]; 0,6 mg/kg P.O., 20 minutes (before treatment)
  a = variation of average number of errors as regard as the controls: -
[2]; [3]
  E = average number of errors: 12,3
  T = average time for crossing over: 124,2 seconds
[2]; 0,6 mg/kg P.O., 60 minutes
  E = average number of errors: 8,4
  T = average time for crossing over: 85,2 seconds
  a = variation of average number of errors as regard as the controls: -
[2]; 0,6 mg/kg P.O., 120 minutes
  E = average number of errors: 6,2
  T = average time for crossing over: 66,4 seconds
  a = variation of average number of errors as regard as the controls: -
[2]; 0,6 mg/kg P.O., 180 minutes
  E = average number of errors: 3,1
  T = average time for crossing over: 37,9 seconds
  a = variation of average number of errors as regard as the controls: -
  b = statistical value (student's test), number of errors: 0,01
[2]; 0,6 mg/kg P.O., 240 minutes
  E = average number of errors: 2,0
  T = average time for crossing over: 29,4 seconds
  a = variation of average number of errors as regard as the controls: -
  b = statistical value (student's test), number of errors: 0,0005
[2]; 0.6 mg/kg
  potency compared with papaverine or vincamine: competes with that of 20 mg/kg of papaverine or vincamine
  time after which the statistically significant decrease of the number of mistakes appeared: 180 mn
[2]; 6 mg/kg
  start of the improving effect: 60 mn
  time after which the statistically significant decrease of the number of mistakes appeared: 120 mn
[2]; 6 mg/kg P.O., 20 minutes (before treatment)
  a = variation of average number of errors as regard as the controls: -
[2]; [4]
  E = average number of errors: 12,3
  T = average time for crossing over: 133,5 seconds
[2]; 6 mg/kg P.O., 60 minutes
  E = average number of errors: 6,9
  T = average time for crossing over: 75,1 seconds
  a = variation of average number of errors as regard as the controls: -
[2]; 6 mg/kg P.O., 120 minutes
  E = average number of errors: 4,4
  T = average time for crossing over: 52,5 seconds
  a = variation of average number of errors as regard as the controls: -
  b = statistical value (student's test), number of errors: 0,05
[2]; 6 mg/kg P.O., 180 minutes
  E = average number of errors: 3,6
  T = average time for crossing over: 54,6 seconds
  a = variation of average number of errors as regard as the controls: -
  b = statistical value (student's test), number of errors: 0,05
[2]; 6 mg/kg P.O., 240 minutes
  E = average number of errors: 2,5
  T = average time for crossing over: 23,8 seconds
  a = variation of average number of errors as regard as the controls: -
  b = statistical value (student's test), number of errors: 0,005
[2]; 60 mg/kg
  time after which the statistically significant decrease of the number of mistakes appeared: 60 mn
[2]; 60 mg/kg P.O., 20 minutes (before treatment)
  a = variation of average number of errors as regard as the controls: -
[2]; [5]
  E = average number of errors: 10,6
  T = average time for crossing over: 135,0 seconds
[2]; 60 mg/kg P.O., 60 minutes
  E = average number of errors: 5,8
  T = average time for crossing over: 62,2 seconds
  a = variation of average number of errors as regard as the controls: -
  b = statistical value (student's test), number of errors: 0,025
[2]; 60 mg/kg P.O., 120 minutes
  E = average number of errors: 2,7
  T = average time for crossing over: 28,8 seconds
  a = variation of average number of errors as regard as the controls: -
  b = statistical value (student's test), number of errors: 0,005
[2]; 60 mg/kg P.O., 180 minutes
  E = average number of errors: 1,6
  T = average time for crossing over: 18,8 seconds
  a = variation of average number of errors as regard as the controls: -
  b = statistical value (student's test), number of errors: 0,0005
[2]; 60 mg/kg P.O., 240 minutes
  E = average number of errors: 1,8
  T = average time for crossing over: 20,1 seconds
  a = variation of average number of errors as regard as the controls: -
  b = statistical value (student's test), number of errors: 0,0005
[2]; 0.6, 6 and 60 mg/kg
  dose dependence of the effect on number of mistakes: closely related to the used dosis
[2]; highest tested dosage (60 mg/kg)
  time after the convulsive shock at which recovery of the memory is complete: 120 mn
[2]; rat, in vivo
  activity relative to papaverine and vincamine: more active
  effect on the recovery of learned memory: improving effect
Central nervous system; dosage not stated
  effect on the central nervous system: diphasic
Central nervous system; higher dosages (20 to 40 mg/kg per os)
  effect on the central nervous system: sedative effect
Central nervous system; higher dosages (dose not stated)
  effect on the central nervous system: sedative effects
Central nervous system; low dosages
  effect on the central nervous system: stimulating properties; also recorded: slight stimulating action
